Data taken from publication PMC10291552, “Computational Design, Synthesis, and Biological Evaluation of Diimidazole Analogues Endowed with Dual PCSK9/HMG-CoAR-Inhibiting Activity” (Journal of Medicinal Chemistry, 2023).

How the values were obtained:
PCSK9/LDLR = target: T1, PCSK9/LDLR (Homo sapiens, UniProt Q8NBP7); experiment: In vitro PCSK9-LDLR binding assay (CircuLex/CycLex kit); settings: for IC50: mean ± SD, three independent experiments, Hill slope fixed at −1
T1 construct: purchased CircuLex (CycLex Co., Nagano, Japan)
Experimental: Diimidazole analogues (0.1–1 × 10^6 nM) were tested using the in vitro PCSK9-LDLR binding assay (CycLex Co., Nagano, Japan) following the manufacturer’s instructions and with the conditions already optimized.[15] Briefly, the plates were pre-coated with a recombinant LDLR-AB domain containing the binding site of PCSK9. Before starting the assay, the tested analogues and/or the vehicle in DMSO were sonicated at 37 °C, diluted in the reaction buffer, and added in microcentrifuge tubes. Afterward, the reaction mixtures were added in each well of the microplate, and the reaction was started by adding His-tagged PCSK9 solution (3 μL). The microplate was allowed to incubate for 2 h at room-temperature (RT) shaking at 300 rpm on an orbital microplate shaker. Subsequently, the wells were washed 4 times with the wash buffer. After the last wash, the biotinylated anti-His-tag monoclonal antibody (100 μL) was added and incubated at RT for 1 h shaking at 300 rpm. After incubation, the wells were washed 4 times with wash buffer. After the last wash, 100 μL of HRP-conjugated streptavidin were added, and the plate was incubated for 20 min at RT. After incubation, the wells were washed 4 times with wash buffer. Finally, the substrate reagent (tetra-methylbenzidine) was added, and the plate was incubated for 10 min at RT shaking at ca. 300 rpm. The reaction was stopped with 2.0 M sulfuric acid, and the absorbance at 450 nm was measured using a Synergy H1 fluorescent plate reader (Winooski, VT, USA).
All the data sets were checked for normal distribution by D’Agostino and Pearson tests. Since they are all normally disturbed with p values of […], we proceeded with statistical analyses of one-way ANOVA followed by Tukey’s post hoc test using Graphpad Prism 9 (San Diego, CA, USA). Values were reported as means ± s.d.; p values of <0.05 were considered to be significant. The IC50 values of samples inhibiting PCSK9-LDLR binding were evaluated by using the log(inhibitor) vs response model of GraphPad Prism 9 (San Diego, CA, USA). This model assumes that the dose–response curves has a standard slope, equal to a Hill slope (or slope factor) of −1.0. This is the slope expected when a ligand binds to a receptor following the law of mass action and is the slope expected of a dose–response curve when the second messenger created by receptor stimulation binds to its receptor by the law of mass action (https://graphpad.com/guides/prism/latest/curvefitting/reg_dr_inhibit.htm).

platelet-rich plasma = experiment: Platelet aggregation by light transmission aggregometry (PCSK9-potentiated, epinephrine-induced); format: cell-based, human; settings: 10 nM preincubated with PCSK9 5 μg/mL; epinephrine 0.16 μM; n = 5 healthy donors
Experimental: Whole blood (WB) was drawn with a 19-gauge needle without venous stasis into citrate (1/10 volume of 0.129 M sodium citrate), discarding the first 4 mL. Platelet-rich plasma (PRP) was obtained by centrifuging whole blood for 10 min at 100g without breaks at room temperature as previously described.[44]
Platelet function was assessed by light transmission aggregometry using PAP-8 aggregometer (BioData). Lag time and area under the curve (AUC) were used as the main parameters describing the kinetic of platelet aggregation as previously described.[3] Briefly, PRP was preincubated with PCSK9 (5 μg/mL, 2 min at 37 °C) followed by epinephrine (0.16 μM) stimulation. To test the effect of Dim16 on PCSK9-dependent platelet aggregation, PCSK9 was preincubated with Dim16 (10 nM) for 15 min at room temperature and then added to PRP.

T1 sequence (Q8NBP7 153-692): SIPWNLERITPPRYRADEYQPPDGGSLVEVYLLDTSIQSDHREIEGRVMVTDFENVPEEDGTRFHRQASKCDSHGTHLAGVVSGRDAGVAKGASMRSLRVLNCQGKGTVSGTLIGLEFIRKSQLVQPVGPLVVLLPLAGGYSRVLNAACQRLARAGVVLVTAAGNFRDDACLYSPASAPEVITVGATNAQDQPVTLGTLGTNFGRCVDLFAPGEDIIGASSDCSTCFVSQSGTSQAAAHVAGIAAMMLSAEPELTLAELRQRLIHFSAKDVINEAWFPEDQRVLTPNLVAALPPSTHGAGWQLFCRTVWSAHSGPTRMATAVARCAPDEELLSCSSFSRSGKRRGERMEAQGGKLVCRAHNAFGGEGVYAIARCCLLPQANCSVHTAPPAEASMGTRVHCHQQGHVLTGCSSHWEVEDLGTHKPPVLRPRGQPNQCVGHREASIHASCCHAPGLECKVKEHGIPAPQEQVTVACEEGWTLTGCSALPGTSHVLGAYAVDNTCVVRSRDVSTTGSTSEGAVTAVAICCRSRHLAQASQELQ
T1 sequence (Q8NBP7 31-152 limits assumed): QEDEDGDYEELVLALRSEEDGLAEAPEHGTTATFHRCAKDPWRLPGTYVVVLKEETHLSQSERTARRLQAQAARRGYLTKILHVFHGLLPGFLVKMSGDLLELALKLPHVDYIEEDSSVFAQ

| SMILES | IC50 (PCSK9/LDLR) | PCSK9/LDLR PPI, fold more active than P5 (PCSK9/LDLR; ratio versus P5) | effect on PCSK9 potentiation of platelet aggregation (lag time, AUC) (platelet-rich plasma) |
| --- | --- | --- | --- |
| C#Cc1ncc(-c2ncc(-c3ccc4ccccc4c3)n2CCCC(C)(C)C)n1CCCCCNC [Dim3, 5-(1-(4,4-Dimethylpentyl)-2′-ethynyl-5-(naphthalen-2-yl)-1H,3′H-[2,4′-biimidazol]-3′-yl)-N-methylpentan-1-amine] | 9 ± 10 nM | – | – |
| CNCCCCCn1c(-c2ncc(-c3ccc4ccccc4c3)n2CCCC(C)(C)C)cnc1I [Dim16, 5-(1-(4,4-Dimethylpentyl)-2′-iodo-5-(naphthalen-2-yl)-1H,3′H-[2,4′-biimidazol]-3′-yl)-N-methylpentan-1-amine] | 0.8 ± 1 nM | 2000 | significantly prevented |
